Consider three compounds from patent US20170274014A1, “COMBINATIONS OF LOW, IMMUNE ENHANCING, DOSES OF MTOR INHIBITORS AND CARS” (Novartis AG, priority 2014, published 2017).

One assay addresses mTOR (Homo sapiens, UniProt P42345). The note with it: low concentration; cited from earlier work.
The subject of a further assay is PI3K/mTOR. Particulars: relatively higher concentrations; cited from earlier work.
For assay [1] the following is noted: mice; cited from earlier work.
Another assay concerns influenza vaccination. The note with it: elderly mice, 6 weeks of treatment; cited from earlier work.
A further assay deals with influenza. Particulars: mice vaccinated against influenza in the presence of rapamycin; cited from earlier work.
For assay [2] the following is noted: old mice; cited from earlier work.
In assay [3] the test system is NFAT inducible promoter driven luciferase activity. In kind it is cell-based. Particulars: PDL1-Fc coated plate as compared to control treatment by IgG1-Fc; Jurkat JNL cells. Here is the method:
Jurkat cells with NFAT-LUC reporter (JNL) were grown to the density of 0.5×10^6/ml in Jurket cell growth media with puromycin at 0.5 μg/ml. For each transfection 3×10^6 cells were spin down at 100 g for 10 minutes. Four μg DNA per construct were used per transfection. Amaxa Nucleofector solution V and supplement I was mixed and 100 μl was added into the tube with DNA construct. The mixture was then added to the cells and transferred to the electroporation cuvette. Electroporation was done under setting X-001 using Amaxa Nucleofector II Device. 0.5 ml of growth media was added immediately after electroporation and the mixture were transferred into 2 ml growth media in one well of the 6-well plate. After two hours, the rapalogue compound at various concentrations was added to cells. The cells were applied to tissue culture plate wells that were coated by the target. Tissue culture plate was coated with 5 μg/ml of PDL1-Fc or IgG1-Fc or any target for 2 hrs at 37° C., then blocked with the blocking buffer (DPBS with 5% serum) for 30 minutes. The transfected cells were added to the target plate with 100 μl per well and incubated further for 16 hrs. Luciferase One Glo reagent 100 μl was added per well. The samples were incubated for 5 min at 37° C. and then luminescence is measured using Envision plate reader.

As for `Cn1c(=O)n(-c2ccc(C(C)(C)C#N)cc2)c2c3cc(-c4cnc5ccccc5c4)ccc3ncc21` [BEZ235, 2-methyl-2-[4-(3-methyl-2-oxo-8-quinolin-3-yl-2,3-dihydro-imidazo[4,5-c]quinolin-1-yl)-phenyl]-propionitrile], the “concentration at which mTOR inhibition predominates” value at mTOR is “less than 100 nmol/L”. The “concentration giving dual PI3K/mTOR inhibition” value in the assay on PI3K/mTOR is given as “approximately 500 nmol/L”.

On to `CO[C@H]1C[C@@H]2CC[C@@H](C)[C@@](O)(O2)C(=O)C(=O)N2CCCC[C@H]2C(=O)O[C@H]([C@H](C)C[C@@H]2CC[C@@H](O)[C@H](OC)C2)CC(=O)[C@H](C)/C=C(\C)[C@@H](O)[C@@H](OC)C(=O)[C@H](C)C[C@H](C)/C=C/C=C/C=C/1C` [rapamycin], for which, in assay [1], the Lifespan entry was “extend lifespan”. In the assay with influenza vaccination, the “Response to influenza vaccination” value is given as “improved response to influenza vaccination”. Also, in the assay on influenza, the “Serologic response to influenza as compared to placebo” value is reported as “broader serologic response”. For the same compound, the Spontaneous physical activity entry in assay [2] is on record as “increases spontaneous physical activity”.

For “PD1 CAR: CAR construct PD1-ECD-TM-4-1BB-CD3zeta, SEQ ID NO: 26”, in assay [3], the “Activation of NFAT inducible promoter driven luciferase activity” value is given as “significant PD1 induced activation”.
